{"source": "paper PMC8922279", "about": "“Identification of β-Lactams Active against Mycobacterium tuberculosis by a Consortium of Pharmaceutical Companies and Academic Institutions” (ACS Infectious Diseases, 2022)", "key": {"[1]": {"experiment": "Stability in fasted simulated intestinal fluid (FaSSIF)", "conditions": "fasted simulated intestinal fluid (FaSSIF), pH 6.5, FaSSIF Stability, % remaining, pH 6.5, room temperature"}, "[2]": {"conditions": "female, 129sv DHP-1 knockout, mouse, in vivo"}, "in vivo": {"experiment": "in vivo", "conditions": "female, 129sv DHP-1 knockout, mouse, sc"}, "[3]": {"experiment": "In vitro plasma stability, beagle dog plasma", "conditions": "beagle, dog, plasma"}, "[4]": {"experiment": "In vitro plasma stability, CD-1 mouse plasma", "conditions": "male, CD-1, mouse, plasma, Plasma stability % Remaining, Mouse, 37 °C, time point 120 min"}, "Caco-2 cells": {"tested_on": "Caco-2 cells", "experiment": "Caco-2 permeability / efflux transporter substrate", "conditions": "Caco-2"}, "[5]": {"experiment": "Caco-2 permeability / efflux transporter substrate", "conditions": "human"}, "Mtb ΔpanCDΔlysA": {"tested_on": "Mtb ΔpanCDΔlysA", "type": "cell-based, Mycobacterium tuberculosis", "conditions": "MIC90 in presence vs absence of 4 μg/mL clavulanate, replicating Mtb"}, "[6]": {"experiment": "Stability in simulated gastric fluid (SGF)", "conditions": "simulated gastric fluid (SGF), pH 1.2"}, "[7]": {"experiment": "In vitro plasma stability, cynomolgus monkey plasma", "conditions": "monkey, plasma"}, "[8]": {"experiment": "In vitro plasma stability, human plasma", "conditions": "human, plasma, Plasma stability % Remaining, 37 °C, time point 120 min"}, "wild-type Mtb H37Rv": {"tested_on": "wild-type Mtb H37Rv", "type": "in vivo, 129sv DHP-1 knockout mice", "conditions": "for Log10 CFU per mouse (lungs), Mean: days 9-15, lungs day 16, untreated day 16 mean 9.1"}, "[9]": {"experiment": "In vitro plasma stability, SD rat plasma", "conditions": "SD, rat, plasma, Plasma stability % Remaining, 37 °C, time point 120 min"}}, "note": "Read-outs that look alike come from different tables or passages of the source."}
{"smiles": "C[C@@H](O)[C@H]1C(=O)N2C(C(=O)O)=C(S[C@@H]3CN[C@H](C(=O)N(C)C)C3)[C@H](C)[C@H]12", "note": "[Meropenem, reference compound]", "values": [{"measurement": "remaining at 6 h, 10 μM", "setting": "[1]; 6h", "result": 94.1, "unit": "%"}, {"measurement": "remaining at 24 h, 10 μM", "setting": "[1]; 24h", "result": 76.8, "unit": "%"}, {"measurement": "Tlast", "setting": "[2]", "result": 1.0, "unit": "h"}, {"measurement": "AUC(0-t)", "setting": "in vivo; 50 mg/kg", "result": 387, "unit": "ng·h/mL"}, {"measurement": "Cmax", "setting": "in vivo; 50 mg/kg", "result": 724, "unit": "ng/mL"}, {"measurement": "Tmax", "setting": "in vivo; 50 mg/kg", "result": 30, "unit": "min"}, {"measurement": "AUC(0-t)", "setting": "in vivo; 300 mg/kg", "result": 2000, "unit": "ng·h/mL"}, {"measurement": "Cmax", "setting": "in vivo; 300 mg/kg", "result": 3340, "unit": "ng/mL"}, {"measurement": "Tmax", "setting": "in vivo; 300 mg/kg", "result": 30, "unit": "min"}, {"measurement": "remaining at 2 h, 2 μM", "setting": "[3]", "result": 75.2, "unit": "%"}, {"measurement": "remaining at 2 h, 2 μM", "setting": "[4]", "result": 74.7, "unit": "%"}, {"measurement": "Caco-2 Rank Papp", "setting": "Caco-2 cells", "result": "Low"}, {"measurement": "Papp A→B at 120 min, 3 μM", "setting": "[5]; Caco-2, pH 7.4", "result": "< 0.26", "unit": "×10⁻⁶ cm/s"}, {"measurement": "Papp B→A at 120 min, 3 μM", "setting": "[5]; Caco-2, pH 7.4", "result": "< 0.24", "unit": "×10⁻⁶ cm/s"}, {"measurement": "recovery at 120 min, 3 μM", "setting": "[5]; Caco-2, pH 7.4, Caco-2 Mean Recovery % A to B", "result": "< 91", "unit": "%"}, {"measurement": "recovery at 120 min, 3 μM", "setting": "[5]; Caco-2, pH 7.4, Caco-2 Mean Recovery % B to A", "result": "< 94.2", "unit": "%"}, {"measurement": "clavulanate shift of MIC90", "setting": "Mtb ΔpanCDΔlysA", "result": "~8", "unit": "fold"}, {"measurement": "remaining at 1 h, 10 μM", "setting": "[6]", "result": 111, "unit": "%"}, {"measurement": "remaining at 24 h, 10 μM", "setting": "[6]", "result": 100, "unit": "%"}, {"measurement": "remaining at 2 h, 2 μM", "setting": "[7]", "result": 99.9, "unit": "%"}, {"measurement": "remaining at 2 h, 2 μM", "setting": "[8]", "result": 70.6, "unit": "%"}, {"measurement": "Log10 CFU per mouse (lungs), Mean", "setting": "wild-type Mtb H37Rv; 50 mg/kg sc bid + clavulanate 100 mg/kg po bid", "result": 7.6, "unit": "Log10 CFU"}, {"measurement": "Log10 CFU per mouse (lungs), Mean", "setting": "wild-type Mtb H37Rv; 300 mg/kg sc bid + clavulanate 100 mg/kg po bid", "result": 7.1, "unit": "Log10 CFU"}, {"measurement": "effect on lung CFU (in words)", "setting": "wild-type Mtb H37Rv; mouse, in vivo", "result": "bacteriostatic impact"}, {"measurement": "remaining at 2 h, 2 μM", "setting": "[9]", "result": 57.7, "unit": "%"}]}
